The source of these data is patent US20120309742A1, “USE OF METABOTROPIC GLUTAMATE RECEPTORS” (priority 2006, published 2012).

Where a name gives a salt, the structure may show the parent alone.

T1 sequence (P41594 21-1180 isoform P41594-2 limits assumed): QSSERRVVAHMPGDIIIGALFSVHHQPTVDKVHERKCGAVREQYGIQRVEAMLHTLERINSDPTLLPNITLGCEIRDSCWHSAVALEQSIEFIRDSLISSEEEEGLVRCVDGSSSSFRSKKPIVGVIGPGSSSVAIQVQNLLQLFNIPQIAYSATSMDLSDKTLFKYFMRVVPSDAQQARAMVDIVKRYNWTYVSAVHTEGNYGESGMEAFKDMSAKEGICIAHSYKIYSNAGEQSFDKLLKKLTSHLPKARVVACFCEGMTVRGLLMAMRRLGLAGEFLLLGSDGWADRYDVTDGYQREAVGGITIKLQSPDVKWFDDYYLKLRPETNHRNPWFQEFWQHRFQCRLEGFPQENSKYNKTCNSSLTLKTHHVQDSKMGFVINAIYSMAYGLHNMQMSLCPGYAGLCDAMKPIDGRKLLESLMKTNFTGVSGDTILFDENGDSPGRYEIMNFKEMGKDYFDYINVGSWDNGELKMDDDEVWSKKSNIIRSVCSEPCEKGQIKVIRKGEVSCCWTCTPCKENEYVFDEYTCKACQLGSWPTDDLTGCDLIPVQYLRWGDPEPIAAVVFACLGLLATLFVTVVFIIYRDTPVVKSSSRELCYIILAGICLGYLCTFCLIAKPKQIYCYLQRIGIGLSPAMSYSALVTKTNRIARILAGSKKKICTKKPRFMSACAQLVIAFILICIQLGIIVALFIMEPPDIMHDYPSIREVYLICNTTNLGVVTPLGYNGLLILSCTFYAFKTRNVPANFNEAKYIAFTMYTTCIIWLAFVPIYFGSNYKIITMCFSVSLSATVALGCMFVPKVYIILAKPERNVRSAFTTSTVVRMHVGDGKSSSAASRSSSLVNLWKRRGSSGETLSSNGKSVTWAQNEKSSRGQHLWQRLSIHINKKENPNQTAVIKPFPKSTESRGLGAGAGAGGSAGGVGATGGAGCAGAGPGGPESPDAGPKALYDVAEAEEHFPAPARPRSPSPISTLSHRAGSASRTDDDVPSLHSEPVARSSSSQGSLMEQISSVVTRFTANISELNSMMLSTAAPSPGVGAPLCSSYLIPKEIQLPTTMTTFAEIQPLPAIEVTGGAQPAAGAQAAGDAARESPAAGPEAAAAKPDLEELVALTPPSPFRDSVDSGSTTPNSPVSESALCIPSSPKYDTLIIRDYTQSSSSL

The first assay has as its target T1, mGluR5 (Homo sapiens, UniProt P41594).
T1 construct: expressed in transfected cells
Put plainly: inhibition of the glutamate induced elevation of intracellular Ca2+-concentration. Type of assay: cell-based. To be noted: inhibition of glutamate induced elevation of intracellular Ca2+-concentration at a concentration of 10 μM. An excerpt: This can be determined in vitro for example at recombinant human metabotropic glutamate receptors, especially PLC-coupled subtypes thereof such as mGluR5, using different procedures like, for example, measurement of the inhibition of the agonist induced elevation of intracellular Ca^2+ concentration in accordance with L. P. Daggett et al., Neuropharm.
For the compound `Cc1ccc(Nc2ccc(C(=O)N3CCCC(C)C3)cn2)cc1` (centres unmarked) [Compound 1.13], the “mGluR5 Activity inh. at 10 μM [%]” value was 96%. Same read-out and setting: as for `CCC(CC)C1OCCCCN1C(=O)c1cnc(Nc2ccc(C)nc2)c(Cl)c1` (centres unmarked) [Compound 4.67], the figure is 95%; as for `Cc1ccc(Nc2ccc(C(=O)N3CCC[C@H](C)C3)cn2)cn1` [Compound 4.13a, (S-3-Methyl-piperidin-1-yl)-[6-(6-methyl-pyridin-3-ylamino)-pyridin-3-yl]-methanone], 97%. Same read-out and setting: as for `C[C@H]1CCCN(C(=O)c2ccc(Nc3ccc(Cl)cc3)nc2)C1` [Compound 1.12a, [6-(4-Chloro-phenylamino)-pyridin-3-yl]-(S-3-methyl-piperidin-1-yl)-methanone], the figure is 99%; as for `O=C(c1ccc(Nc2ccc(Cl)cc2)nc1)N1C2CCC1CC(O)C2` (centres unmarked) [Compound 4.11, [6-(4-Chloro-phenylamino)-pyridin-3-yl]-(3-hydroxy-8-aza-bicyclo[3.2.1]oct-8-yl)-methasone], 51%; as for `Cc1ccc(Nc2ncc(C(=O)N3CCCC4CCCC43)cc2Cl)cn1` (centres unmarked) [Compound 4.25, [5-Chloro-6-(6-methyl-pyridin-3-ylamino)-pyridin-3-yl]-(octahydro-[1]pyrindin-1-yl)-methasone], 98%. On the same count and under the same terms, as for `CCOCC1CCCCN1C(=O)c1cnc(Nc2ccc(C)nc2)c(Cl)c1` (centres unmarked) [Compound 4.60, [5-Chloro-6-(6-methyl-pyridin-3-ylamino)-pyridin-3-yl]-(2-thoxymethyl-piperidin-1-yl)-methanone], the figure is 97%. On to `C/C=C\C1CCCCN1C(=O)c1cnc(Nc2ccc(C)nc2)c(Cl)c1` (centres unmarked) [Compound 4.56, [5-Chloro-6-(6-methyl-pyridin-3-ylamino)-pyridin-3-yl]-[((Z)-2-propenyl)-piperidin-1-yl]-methanone], for which the “mGluR5 Activity inh. at 10 μM [%]” value is on record as 97%. Consider `CCC[C@H]1CCCCN1C(=O)c1cnc(Nc2ccc(C)nc2)c(Cl)c1` [Compound 4.35, [5-Chloro-6-(6-methyl-pyridin-3-ylamino)-pyridin-3-yl]-((S)-2-propyl-piperidin-1-yl)-methasone], for which the “mGluR5 Activity inh. at 10 μM [%]” value came to 85%.

Staying with this assay, now noted: read-out: mGluR5 Activity inh. at 10 μM [%].
As for `COc1ccc(Nc2ccc(C(=O)N3C[C@@H](C)O[C@@H](C)C3)cn2)cc1` [Compound 1.21, (cis-2,6-Dimethyl-morpholin-4-yl)-[6-(4-methoxy-phenylamino)-pyridin-3-yl]-methanone hydrochloride], the inhibition at 10 µM is 57%. The same measure, in the same setting: next, `Cc1ccc(Nc2ncc(C(=O)N3CCC[C@@H]4CCC[C@@H]43)cc2Cl)cn1` [Compound 4.26, [5-Chloro-6-(6-methyl-pyridin-3-ylamino)-pyridin-3-yl]-(4aS,7aS)-octahydro-[1]pyrindin-1-yl-methanone]: 93%.
